Drawing on PubChem BioAssay AID192 (DTP/NCI, 2004), this text covers T/C for 20 molecules.

Values joined by “and” are separate entries in the source; they are usually repeats but may differ in a detail not shown here. Identical values can stand only once. Toxic doses and inconclusive results are not listed.

This assay deals with BDF1 mice, B16 melanoma ip, median survival T/C. In words: NCI In Vivo Anticancer Drug Screen. Data for tumor model B16 Melanoma (intraperitoneal) in B6D2F1 (BDF1) mice. Particulars: endpoint: median survival time, higher = longer survival. The gist of the method: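 The ratio T/C compares compound-treated mice with vehicle-treated controls, using survival or tumor size as the endpoint in a transplantable tumor model.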

[1] abbreviates: dose: 12.5 mg/kg/injection, schedule: Q01DX009 (ip), vehicle: saline with Tween-80.
Where [2] appears, read: dose: 25.0 mg/kg/injection, schedule: Q01DX009 (ip), vehicle: saline with Tween-80.
[3] abbreviates: dose: 50.0 mg/kg/injection, schedule: Q01DX009 (ip), vehicle: saline with Tween-80.
[4] abbreviates: dose: 100.0 mg/kg/injection, schedule: Q01DX009 (ip), vehicle: saline with Tween-80.
Setting [5] is: dose: 3.12 mg/kg/injection, schedule: Q01DX009 (ip), vehicle: saline with Tween-80.
[6] abbreviates: dose: 6.25 mg/kg/injection, schedule: Q01DX009 (ip), vehicle: saline with Tween-80.
Setting [7] is: dose: 20.0 mg/kg/injection, schedule: Q01DX009 (ip), vehicle: Klucel (hydroxypropylcellulose) (HPC).
Setting [8] is: dose: 50.0 mg/kg/injection, schedule: Q01DX009 (ip), vehicle: Klucel (hydroxypropylcellulose) (HPC).
The mark [9] stands for this setting: dose: 100.0 mg/kg/injection, schedule: Q01DX009 (ip), vehicle: Klucel (hydroxypropylcellulose) (HPC).
Setting [10] is: dose: 200.0 mg/kg/injection, schedule: Q01DX009 (ip), vehicle: Klucel (hydroxypropylcellulose) (HPC).
[11] abbreviates: dose: 50.0 mg/kg/injection, schedule: Q01DX009 (ip), vehicle: saline.
Setting [12] is: dose: 1.56 mg/kg/injection, schedule: Q01DX009 (ip), vehicle: saline with Tween-80.
Setting [13] is: dose: 6.25 mg/kg/injection, schedule: Q01DX009 (ip), vehicle: saline.

For the molecule `ClC1CCCC[N-]1.ClC1CCCC[N-]1.[Cl][Pt+2][Cl]` (stereo unspecified), the T/C runs as follows: under setting [1], 91 % of control; under setting [2], 97 % of control; under setting [3], 89 % of control; under setting [4], 108 % of control; (dose: 200.0 mg/kg/injection, schedule: Q01DX009 (ip), vehicle: saline with Tween-80) 105 % of control.
With `S=C=NCCCCCCCCCCCCN=C=S`, the T/C under setting [5] was 99 % of control, the T/C under setting [6] is 86 % of control and the T/C under setting [1] is 98 % of control.
Consider `O=[N+]([O-])c1cc([N+](=O)[O-])c(Br)cc1Cl`, for which the T/C is 92 % of control (dose: 2.5 mg/kg/injection, schedule: Q01DX009 (ip), vehicle: saline with Tween-80); 98 % of control (dose: 5.0 mg/kg/injection, schedule: Q01DX009 (ip), vehicle: saline with Tween-80); 87 % of control (dose: 10.0 mg/kg/injection, schedule: Q01DX009 (ip), vehicle: saline with Tween-80); 94 % of control under setting [7].
Regarding `CCN(CC)CCOC(=O)c1ccccc1N(c1ccccc1)c1ccccc1`, the T/C is 102 % of control (dose: 62.5 mg/kg/injection, schedule: Q01DX009 (ip), vehicle: saline sonified); 89 % of control (dose: 125.0 mg/kg/injection, schedule: Q01DX009 (ip), vehicle: saline sonified); 89 % of control (dose: 250.0 mg/kg/injection, schedule: Q01DX009 (ip), vehicle: saline sonified).
Take `Cn1c(=O)c2[nH]c(Cc3ccc4c(c3)OCO4)nc2n(C)c1=O`: the T/C is 96 % of control (dose: 0.25 mg/kg/injection, schedule: Q01DX009 (ip), vehicle: Klucel (hydroxypropylcellulose) (HPC)); 94 % of control (dose: 0.5 mg/kg/injection, schedule: Q01DX009 (ip), vehicle: Klucel (hydroxypropylcellulose) (HPC)); 96 % of control (dose: 1.0 mg/kg/injection, schedule: Q01DX009 (ip), vehicle: Klucel (hydroxypropylcellulose) (HPC)); 93 % of control (dose: 2.0 mg/kg/injection, schedule: Q01DX009 (ip), vehicle: Klucel (hydroxypropylcellulose) (HPC)).
On to `O=NN(CCCl)C(=O)NC1[C@H](O)CCC[C@@H]1O` (stereo partly specified), for which the T/C by setting is: (dose: 0.63 mg/kg/injection, schedule: Q01DX009 (ip), vehicle: saline) 159 % of control; (dose: 1.25 mg/kg/injection, schedule: Q01DX009 (ip), vehicle: saline) 208 % of control; (dose: 2.5 mg/kg/injection, schedule: Q01DX009 (ip), vehicle: saline) 295 % of control; (dose: 5.0 mg/kg/injection, schedule: Q01DX009 (ip), vehicle: saline) 295 % of control.
Regarding `COC(=O)C1C(O)C(C)C(O)C(C)(O)C=C(C)C2=C3C(=C(C)C(=O)c4c(O)c(c(C)c(OC(C)=O)c43)NC(=O)C(C)=C/C=C\C(C)(O)C(O)C(C)C1O)OCO2` (stereo unspecified), the T/C is, setting by setting: under setting [8], 94 % of control; under setting [9], 94 % of control; under setting [10], 91 % of control.
As to `C[N+](C)(C)c1nc(N)nc2c1ncn2C1OC(CO)C(O)C1O` (stereo unspecified), the T/C under setting [11] is 106 % of control; the T/C (dose: 100.0 mg/kg/injection, schedule: Q01DX009 (ip), vehicle: saline) is 103 % of control; the T/C (dose: 200.0 mg/kg/injection, schedule: Q01DX009 (ip), vehicle: saline) is 109 % of control.
As to `Cc1nc2c(O)ccc(O)c2nc1C`, the T/C was 106 % of control under setting [12]; 102 % of control (dose: 3.13 mg/kg/injection, schedule: Q01DX009 (ip), vehicle: saline with Tween-80); 100 % of control under setting [6]; 89 % of control under setting [3].
Consider `CC(=O)OCC(OC(C)=O)C(OC(C)=O)C(OC(C)=O)C(C#N)OC(C)=O` (stereo unspecified), for which the T/C runs as follows: (dose: 100.0 mg/kg/injection, schedule: Q01DX005 (ip), vehicle: saline with Tween-80) 104 % of control; (dose: 100.0 mg/kg/injection, schedule: Q04DX003 (ip), vehicle: saline with Tween-80) 86 % of control; (dose: 200.0 mg/kg/injection, schedule: Q01DX005 (ip), vehicle: saline with Tween-80) 100 % of control; (dose: 200.0 mg/kg/injection, schedule: Q04DX003 (ip), vehicle: saline with Tween-80) 97 % of control; (dose: 400.0 mg/kg/injection, schedule: Q01DX005 (ip), vehicle: saline with Tween-80) 97 % of control.
In the case of `CCN(C(=O)COc1ccc(Cl)cc1)c1ccccc1C`, the T/C is, setting by setting: under setting [9], 96 % of control; under setting [10], 106 % of control; (dose: 400.0 mg/kg/injection, schedule: Q01DX009 (ip), vehicle: Klucel (hydroxypropylcellulose) (HPC)) 96 % of control.
As for `CCCCCCC(=O)O[C@H]1CC[C@H]2[C@@H]3CCC4=CC(=O)CC[C@]4(C)[C@H]3CC[C@]12C`, the T/C runs as follows: (dose: 10.0 mg/kg/injection, schedule: Q01DX009 (ip), vehicle: Klucel (hydroxypropylcellulose) (HPC)) 96 % of control; under setting [7], 110 % of control; (dose: 40.0 mg/kg/injection, schedule: Q01DX009 (ip), vehicle: Klucel (hydroxypropylcellulose) (HPC)) 89 % of control; (dose: 80.0 mg/kg/injection, schedule: Q01DX009 (ip), vehicle: Klucel (hydroxypropylcellulose) (HPC)) 103 % of control.
For `CC1(CC(C)(C)C2CCCCC2)OCCO1`, the T/C runs as follows: (dose: 12.5 mg/kg/injection, schedule: Q01DX009 (ip), vehicle: other) 100 % of control; (dose: 25.0 mg/kg/injection, schedule: Q01DX009 (ip), vehicle: other) 93 % of control; (dose: 50.0 mg/kg/injection, schedule: Q01DX009 (ip), vehicle: other) 90 % of control.
Turning to `CCc1ccc2c(c1)N(CCCN(CCCl)CCCl)c1ccccc1S2`, the T/C is, setting by setting: under setting [12], 114 % of control; (dose: 1.56 mg/kg/injection, schedule: Q04DX003 (ip), vehicle: saline with Tween-80) 87 % of control; under setting [5], 92 % of control and 123 % of control; (dose: 3.12 mg/kg/injection, schedule: Q04DX003 (ip), vehicle: saline with Tween-80) 110 % of control; under setting [6], 111 % of control and 117 % of control; (dose: 6.25 mg/kg/injection, schedule: Q04DX003 (ip), vehicle: saline with Tween-80) 105 % of control. Further, the T/C is 112 % of control (dose: 12.5 mg/kg/injection, schedule: Q04DX003 (ip), vehicle: saline with Tween-80) and 115 % of control (dose: 25.0 mg/kg/injection, schedule: Q04DX003 (ip), vehicle: saline with Tween-80).
As to `CC(=O)Nc1cccc(OCCCOc2cccc(C(=N)N)c2)c1`, the T/C reads like this: (dose: 9.37 mg/kg/injection, schedule: Q04DX003 (ip), vehicle: Klucel (hydroxypropylcellulose) (HPC)) 102 % of control; (dose: 18.75 mg/kg/injection, schedule: Q04DX003 (ip), vehicle: Klucel (hydroxypropylcellulose) (HPC)) 100 % of control; (dose: 37.5 mg/kg/injection, schedule: Q04DX003 (ip), vehicle: Klucel (hydroxypropylcellulose) (HPC)) 97 % of control; under setting [8], 102 % of control; under setting [9], 86 % of control.
In the case of `c1cc[c]([Sn]([c]2ccccc2)([c]2ccccc2)[n]2cccc2)cc1`, the T/C under setting [13] was 115 % of control.
Regarding `COc1cc(Cc2nccc3cc(OC)c(OC)cc23)c(C(C)=O)cc1OC`, the T/C (dose: 3.12 mg/kg/injection, schedule: Q01DX009 (ip), vehicle: saline) was 93 % of control; the T/C under setting [13] is 102 % of control; the T/C (dose: 12.5 mg/kg/injection, schedule: Q01DX009 (ip), vehicle: saline) was 97 % of control; the T/C (dose: 25.0 mg/kg/injection, schedule: Q01DX009 (ip), vehicle: saline) is 103 % of control; the T/C under setting [11] is 100 % of control.
As for `O=C1NC(=O)C(Cc2ccccc2)(c2ccccc2)N1` (stereo unspecified), the T/C is 105 % of control under setting [3] and 102 % of control under setting [4].
In the case of `Cc1ccc2c(ccc(/C=C/c3ccc(O)c4ncccc34)[n+]2C)c1`, the T/C by setting is: under setting [1], 113 % of control; under setting [2], 103 % of control.
With `CCc1ccccc1NC(=O)Nc1ccccc1`, the T/C under setting [9] is 90 % of control; the T/C (dose: 100.0 mg/kg/injection, schedule: Q04DX003 (ip), vehicle: Klucel (hydroxypropylcellulose) (HPC)) is 100 % of control; the T/C under setting [10] was 90 % of control; the T/C (dose: 200.0 mg/kg/injection, schedule: Q04DX003 (ip), vehicle: Klucel (hydroxypropylcellulose) (HPC)) is 100 % of control; the T/C (dose: 400.0 mg/kg/injection, schedule: Q04DX003 (ip), vehicle: Klucel (hydroxypropylcellulose) (HPC)) was 92 % of control.
